Results on 26 molecules are retold here after US5138069A (E. I. Du Pont de Nemours and Company, priority 1988, dated 1992).

One assay deals with conscious dogs. Nature of the assay: Hypotensive effects in conscious dogs before and after furosemide. It is filed as in vivo. As to the method:
(§1) The hypotensive effects of 2-butyl-4-chloro-1-[2'-(1H-tetrazol-5-yl)biphenyl-4-yl)methyl]-5-hydroxymethylimidazole sodium salt were compared before and after furosemide administration to conscious dogs. […] Plasma renin activity (PRA) in these animals was 1.5±0.5 ng AI/ml/hr. Four days later, furosemide was given to three of these dogs at 10 mg/kg im at 18 and 2 hours before the experiment and increased PRA to 19.9±7.2 ng AI/ml/hr. […] Thus a combined therapy of these two classes of drugs will be likely to increase the response rate to therapy among hypertensive patients.

In the next assay the test system is pressor response to AII. Nature of the assay: Inhibition of the pressor response to AII in conscious dogs. It is filed as in vivo. As for the experimental part: as §1
In a further assay the target is AII receptor. The experiment in a line: Angiotensin II receptor binding (displacement of 3H-AII). To be noted: read-out: Angiotensin II Receptor Binding IC50, rat adrenal cortical microsomes, 2 nM 3H-AII, 1 hour, room temperature. In a few lines: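 The receptor source was rat adrenal cortical microsomes in Tris buffer, incubated with 2 nM ³H-AII plus or minus test compound for 1 h at room temperature. Bound and free ligand were separated by rapid filtration on glass-fibre filters. Filter-bound ³H-AII was counted by scintillation.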

The subject of another assay is Renal Hypertensive Rats. The experiment in a line: Antihypertensive effects in renal hypertensive rats. It is filed as in vivo. The conditions noted are these: Rattus norvegicus; for minimal effective dose at 10 mg/kg / minimal effective dose at 100 mg/kg: Table 25; for minimal effective dose at 10 mg/kg / minimal effective dose at 3 mg/kg: intravenous; for minimal effective dose at 10 mg/kg: 10 mg/kg or less; for minimal effective dose at 100 mg/kg / minimal effective dose at 30 mg/kg: oral; for minimal effective dose at 100 mg/kg: 100 mg/kg or less; for minimal effective dose at 3 mg/kg / minimal effective dose at 30 mg/kg: Table 26. In a few lines:
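Renal hypertensive rats (renin-driven AII elevation) dosed orally at 100 mg/kg and/or i.v. via jugular cannula at 10 mg/kg; a second set used 30 mg/kg oral and 3 mg/kg i.v. Arterial pressure recorded continuously via carotid cannula and compared with pretreatment levels.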

Assay [1] has as its system Plasma renin activity (PRA). The experiment in a line: Plasma renin activity in conscious dogs. It counts as in vivo. The conditions noted are these: three dogs, furosemide 10 mg/kg im at 18 and 2 hours before; PRA before 1.5±0.5. As for the experimental part:
as §1

Assay [2] concerns renal vasoconstrictor effect of NSAID. To be noted: cited from earlier work.
The next assay concerns AII. To be noted: cited from earlier work.
The mark [3] stands for this setting: Table 25, tested as sodium salt.

Read-outs that look alike come from different tables or passages of the source. Where only a bound is given, the exact number is not on record here.

Regarding `CCCCc1nc(Cl)c(CO)n1Cc1ccc(-c2ccccc2-c2nnn[nH]2)cc1`, the “blood pressure, after furosemide” value in the assay on conscious dogs (conscious dogs, cumulative iv 0.3 to 3 mg/kg after furosemide 10 mg/kg im at 18 and 2 hours before) was “caused a significant decrease in blood pressure in a dose-dependent manner”. For the same molecule, the “blood pressure, before furosemide” value with conscious dogs (normotensive conscious dogs, cumulative iv 0.3 to 3 mg/kg, n=4) is on record as “did not lower blood pressure”. Also, the “inhibition of pressor response to AII, before furosemide” value in the assay on pressor response to AII (cumulative iv 0.3 to 3 mg/kg, AII 0.1 μg/kg iv, 10 min post dose) was “effective in inhibiting the pressor response to AII”. In addition, the “inhibition of pressor response to AII, after furosemide” value in the assay with pressor response to AII (iv, after furosemide 10 mg/kg im) was “inhibited the pressor response to AII at the two higher doses”.
Usually IC50 stands for the concentration needed to halve the response being measured. Broadly, the minimal effective dose is the smallest amount tested that counted as effective. Regarding `CCCCc1nc(Cl)c(Cn2cncn2)n1Cc1ccc(C(=O)c2ccccc2C(=O)O)cc1` [Example 204, 2-Butyl-1-[4-(2-Carboxybenzoyl)benzyl]-4-chloro-5-((1,2,4-triazol-1-yl)methyl)imidazole], on AII receptor (setting [3]), the IC50 came to 1900 nM. Further, in the assay with Renal Hypertensive Rats (tested as sodium salt), the minimal effective dose at 10 mg/kg is under 10 mg/kg and the minimal effective dose at 100 mg/kg was over 100 mg/kg.
With `CCCCc1nc(Cl)c(CO)n1Cc1ccc(-c2ccccc2C(=O)NS(=O)(=O)c2ccccc2C)cc1` [Example 319], the IC50 at AII receptor (Table 26) amounted to 91 nM. Also, in the assay with Renal Hypertensive Rats, the minimal effective dose at 3 mg/kg was under 3 mg/kg and the minimal effective dose at 30 mg/kg was over 30 mg/kg.
As for `CCCCc1nc(Cl)c(CC(=O)O)n1Cc1ccc(-c2ccccc2C(=O)O)cc1` [Example 115], on AII receptor (Table 25), the IC50 turned out to be 430 nM. Further, in the assay on Renal Hypertensive Rats, the minimal effective dose at 10 mg/kg was under 10 mg/kg and the minimal effective dose at 100 mg/kg is under 100 mg/kg.
The corresponding values for `CCCCc1nc(Cl)c(C=O)n1Cc1ccc(-c2ccccc2-c2nnn[nH]2)cc1` [Example 132, 2-n-Butyl-4-chloro-1-[(2'-(1H-Tetrazol-5-yl)-biphenyl-4-yl)methyl]imidazole-5-carboxaldehyde] are 20 nM, under 10 mg/kg and under 100 mg/kg.
As to `CCCCc1nc(Cl)c(CNC(=O)OC)n1Cc1ccc(-c2ccccc2-c2nnn[nH]2)cc1` [Example 156], the IC50 on AII receptor (Table 25) was 60 nM. Further, the minimal effective dose at 10 mg/kg in the assay with Renal Hypertensive Rats was under 10 mg/kg.
`CCCCc1nc(Cl)c(CC(=O)OC)n1Cc1ccc(N2C(=O)c3ccccc3C2=O)cc1` [Example 29, Methyl 2-butyl-4-chloro-1-(4-N-phthalimidobenzyl)imidazole-5-acetate]: the IC50 at AII receptor (Table 25) worked out at 3100 nM. Also, in the assay with Renal Hypertensive Rats, the minimal effective dose at 10 mg/kg is under 10 mg/kg and the minimal effective dose at 100 mg/kg is over 100 mg/kg.
Taken in the same sequence, the figures for `CCCCc1nc(Cl)c(C=CCO)n1Cc1ccc(-c2ccccc2C(=O)O)cc1` [Example 314] were 630 nM, under 10 mg/kg and over 100 mg/kg.
Consider `CCCCc1nc(Cl)c(Cc2nnn[nH]2)n1Cc1cccc(-c2nnn[nH]2)c1` [Example 26, 2-Butyl-4-chloro-5-[(1H-tetrazol-5-yl)methyl]-1-[3-(1H-tetrazol-5-yl)benzyl]imidazole], for which the IC50 on AII receptor (setting [3]) worked out at 3800 nM. The minimal effective dose at 100 mg/kg with Renal Hypertensive Rats (tested as sodium salt) was over 100 mg/kg.
For the molecule `CCCCc1nc(C(F)(F)C(F)(F)F)c(CO)n1Cc1ccc(-c2ccccc2C(=O)O)cc1` [Example 92A, 1-[(2'-carboxybiphenyl-4-yl)methyl]-2-butyl-5-hydroxymethyl-4-pentafluoroethylimidazole], on AII receptor (Table 26), the IC50 was found to be 40 nM. In the assay with Renal Hypertensive Rats, this molecule displayed a minimal effective dose at 3 mg/kg of under 3 mg/kg and a minimal effective dose at 30 mg/kg of under 30 mg/kg.
The corresponding values for `CCCc1nc(C(=O)O)c(C(=O)O)n1Cc1ccc(-c2ccccc2-c2nnn[nH]2)cc1` [Example 329] are 76 nM, under 3 mg/kg and under 30 mg/kg.
As to `CCCCc1nc(Cl)c(CO)n1Cc1ccc(-c2ccccc2C(=O)NOCc2ccccc2)cc1` [Example 181], the IC50 on AII receptor (Table 25) is 4900 nM. In the assay on Renal Hypertensive Rats, the minimal effective dose at 10 mg/kg is under 10 mg/kg and the minimal effective dose at 100 mg/kg was over 100 mg/kg.
The corresponding values for `CCCCc1nc(Cl)c(COC)n1Cc1ccc(-c2ccccc2C(=O)NNS(=O)(=O)C(F)(F)F)cc1` [Example 176, 2-n-Butyl-4-chloro-5-methoxymethyl-1-[4-(2-(trifluoromethylsulfonylhydrazido)biphenyl-4-yl)methyl]imidazole] are 200 nM, under 10 mg/kg and over 100 mg/kg.
Take `CCCCc1nc(C(F)(F)F)c(C(=O)OCOC(=O)C(C)(C)C)n1Cc1ccc(-c2ccccc2-c2nn[nH]n2)cc1` [Example 314A]: the IC50 on AII receptor (Table 26) came to 64 nM. In the assay with Renal Hypertensive Rats, this molecule showed a minimal effective dose at 3 mg/kg of under 3 mg/kg and a minimal effective dose at 30 mg/kg of under 30 mg/kg.
The corresponding values for `CCCc1nc(C(=O)OC)c(C(=O)OC)n1Cc1ccc(-c2ccccc2-c2nnn[nH]2)cc1` [Example 333, 4,5-Dicarbomethoxy-2-n-propyl-1-[(2'-(1H-tetrazol-5-yl)biphenyl-4-yl)methyl]imidazole] are 51 nM, under 3 mg/kg and under 30 mg/kg.
`NS(=O)(=O)c1cc(C(=O)O)c(NCc2ccco2)cc1Cl` [furosemide]: the “Plasma renin activity (PRA) after furosemide” value in assay [1] is 19.9±7.2 ng AI/ml/hr.
For the molecule `C[C@H](CS)C(=O)N1CCC[C@H]1C(=O)O` [captopril, Captopril], the “effect on renal vasoconstrictor effect of indomethacin” value in assay [2] (dogs with non-hypotensive hemorrhage) was “reverse the renal vasoconstrictor effect of indomethacin in dogs”.
Regarding `CCCCc1nc(I)c(C=O)n1Cc1ccc(-c2ccccc2-c2nnn[nH]2)cc1` [Example 140K], the IC50 on AII receptor (Table 26) is 38 nM. In the assay on Renal Hypertensive Rats, this molecule displayed a minimal effective dose at 3 mg/kg of under 3 mg/kg and a minimal effective dose at 30 mg/kg of under 30 mg/kg.
Taken in the same sequence, the figures for `CCCCc1nc(Cl)c(C=NNC2=NCCN2)n1Cc1ccc(-c2ccccc2-c2nnn[nH]2)cc1` [Example 327A] were 290 nM, under 3 mg/kg and under 30 mg/kg.
Consider `CNCC(=O)N[C@@H](CCCN=C(N)N)C(=O)N[C@H](C(=O)N[C@@H](Cc1ccc(O)cc1)C(=O)N[C@H](C(=O)N[C@@H](Cc1cnc[nH]1)C(=O)N1CCC[C@H]1C(=O)N[C@@H](C)C(=O)O)C(C)C)C(C)C` [Saralasin, [Sar^1, Ala^8] AII], for which, in assay [2] (dogs), the “effect on renal vasoconstrictor effect of indomethacin and meclofenamate” value is “inhibit the renal vasoconstrictor effect of indomethacin and meclofenamate in dogs”. For the same molecule, the “antagonism of the actions of AII” value with AII (Pals et al. 1971, pithed rats) is recorded as “one of the most potent competitive antagonists of the actions of AII”. Besides, the arterial pressure entry in the assay with AII (mammals and man, elevated pressure dependent on circulating AII) is “lower arterial pressure in mammals and man”. The oral efficacy entry in the assay on AII (oral doses) was “oral doses being ineffective”. For the same molecule, the pressor effects result with AII (when the pressure is not sustained by AII) is “generally elicits pressor effects when the pressure is not sustained by AII”.
`CCCCc1nc(Cl)c(CNS(C)(=O)=O)n1Cc1ccc(C(=O)c2ccccc2C(=O)O)cc1` [Example 215]: the IC50 at AII receptor (setting [3]) was 200 nM. Moreover, in the assay with Renal Hypertensive Rats (tested as sodium salt), the minimal effective dose at 10 mg/kg was under 10 mg/kg and the minimal effective dose at 100 mg/kg is over 100 mg/kg.
Take `COCCc1nc(Cl)c(CO)n1Cc1ccc(NC(=O)c2ccccc2C(=O)O)cc1` [Example 55, 1-[4-(2-Carboxybenzamido)-benzyl]-4-chloro-5-hydroxymethyl-2-(2-methoxyethyl)imidazole]: the IC50 on AII receptor (Table 25) was determined as 930 nM. Also, in the assay with Renal Hypertensive Rats, the minimal effective dose at 10 mg/kg was under 10 mg/kg and the minimal effective dose at 100 mg/kg is over 100 mg/kg.
Take `CCCc1nc(C(=O)O)c(CO)n1Cc1ccc(-c2ccccc2-c2nnn[nH]2)cc1` [Example 335, 5-Hydroxymethyl-2-n-propyl-1-[(2'-(1H-tetrazol-5-yl)biphenyl)methyl]-imidazole-4-carboxylic acid]: the IC50 at AII receptor (Table 26) was determined as 260 nM. Moreover, in the assay on Renal Hypertensive Rats, the minimal effective dose at 3 mg/kg was under 3 mg/kg and the minimal effective dose at 30 mg/kg was under 30 mg/kg.
The corresponding values for `CCCc1nc(C(F)(F)F)c(CO)n1Cc1ccc(-c2ccccc2C(=O)O)cc1` [Example 124A] are 130 nM, under 3 mg/kg and under 30 mg/kg.
As to `CCCCc1nc(Cl)c(COC)n1Cc1ccc(C(=O)Nc2ccccc2C(=O)O)cc1` [Example 78], the IC50 at AII receptor (setting [3]) came out at 8000 nM. For the same molecule, in the assay with Renal Hypertensive Rats (tested as sodium salt), the minimal effective dose at 10 mg/kg was under 10 mg/kg and the minimal effective dose at 100 mg/kg is under 100 mg/kg.
Consider `CCCCc1nc(Cl)c(C(=O)N(C)C)n1Cc1ccc(-c2ccccc2C(=O)O)cc1` [Example 135], for which, on AII receptor (Table 25), the IC50 stood at 1300 nM. In the assay on Renal Hypertensive Rats, the minimal effective dose at 10 mg/kg is under 10 mg/kg and the minimal effective dose at 100 mg/kg is under 100 mg/kg.
